# Test results: patent publication US20150276760A1, “Method for Screening a Compound Capable of Inhibiting the Notch1 Transcriptional Activity” (INSERM (institut National de la Sante et de la Recherche …, priority 2012, published 2015)
# What was measured:
# monoamine oxidases = details: compared with TCP; cited from earlier work
# [1] = tested on: Notch-induced HES1 transcription in U937 cells; assay: Ligand (Delta-like 4)-mediated HES1 activation in U937 cells; details: recombinant DL-4 Notch ligand
# [2] = tested on: Notch-responsive genes in SupT1 cells; assay: Notch-responsive gene expression in GSI-treated SupT1 cells
# [3] = tested on: HES1, HEY1 and DTX1 expression in U937 cells; assay: Notch-target gene expression in U937 cells without Notch activation (Q-RT-PCR); details: TCP 1 mM, S2101 30 μM
# [4] = tested on: Notch-target genes in T-ALL cells; assay: Notch-target gene expression in T-ALL cell lines (Q-RT-PCR)
# [5] = tested on: ICN1-induced activation of p6XCBS-luc; assay: Notch-responsive reporter assay (p6XCBS-luc) in HeLa cells; format: cell-based
# Protocol: HeLa cells were co-transfected with 1 μg of a Notch-responsive firefly luciferase reporter containing 6 CSL-binding sites (p6XCBS-luc), 100 ng of TK-Renilla-luciferase vector (transfection control) and various amount (0.1-0.3-1 μg) of the MigR1-ICN1 expression vector. Transfections were performed in 6-wells plates using JetPEI reagent (Polyplus) according to manufacturer's instruction. Firefly luciferase activity was measured 24 hours post-transfection and normalized to Renilla luciferase expression. The values in the figures are Relative Luciferase Units (RLU) represented as fold induction over the luciferase activity measured in the absence of ICN1 (cells transfected with p6XCBS-luc and an empty vector).
# [6] = tested on: Notch-target genes in pre-T cells; assay: ChIP in T-cell precursors from in vitro T-cell differentiation; format: cell-based, human; details: GSI 5 μM, 2 days
# Protocol: For ChIP experiments, 6×10^7 cells were cross-linked for 10 min with 1% formaldehyde (sigma) at room temperature. The cross-linking reaction was stopped by adding glycine to a final concentration of 0.125 M for 10 min at room temperature. Cells were washed twice with cold PBS and incubated on ice for 7 min in 2 mL of buffer containing 15 mM Tris-HCl (pH 7.4), 0.3 M sucrose (sigma), 60 mM KCl, 15 mM NaCl, 5 mM MgCl2, 0.1 mM EGTA and 0.1% NP-40. Each cell suspension was then layered over 8 mL sucrose cushion (15 mM Tris-HCl, 1.2 M sucrose, 60 mM KCl, 15 mM NaCl, 5 mM MgCl2 and 0.1 mM EGTA) and centrifuged at 10.000 g for 20 min at 4° C. Nuclear pellet was lysed with 1 mL lysis buffer (50 mM Tris-HCl pH 8, 10 mM EDTA, 1% SDS) complemented with Protease Inhibitor Cocktail (Roche). […] DNA was extracted by phenol-chloroform, quantified using nanodrop and run on a 1% agarose gel to confirm DNA fragment size. […]
# CD34+ cells from human umbilical cord blood samples were sorted (Stemcell technologies) (≧95% purity) and cultured on OP9-DL1 stromal cells in αMEM media containing FLT3L (5 ng/ml), and IL7 (5 ng/ml) for 16 days. At day 16, most progenitors (˜90%) were engaged to the T-cell lineage (pre-T cells) as determined by the expression of CD5 and CD1a. pre-T-cells were cultured for 2 additional days on OP9-DL1 cells in presence or absence of GSI (5 μM).
# [7] = tested on: Notch-activation complex (ICN1-CSL-MAML1); assay: Immunopurification / coimmunoprecipitation from SupT1 nuclear extracts (western blot); set-up: species or system human
# Protocol: After two step affinity chromatography, protein complexes containing both tagged-proteins were peptide eluted and analyzed by western blot. For endogenous protein immunoprecipitations, nuclear extracts (500 μg-1 mg) were incubated with antibodies (1-2 μg) for 4 hr, followed by addition of 10 μL protein G Sepharose beads (Fast flow, Sigma) for 45 min before washing five times with 800 μL of buffer B015 in spin columns (Pierce).
# Cells were lysed in lysis buffer (50 mM Tris-HCl, 120 mM NaCl, 5 mM EDTA, 0.5% NP-40 and PMSF) and briefly sonicated. Cell lysates and immunoprecipitates were boiled in SDS sample buffer and resolved on a 7% SDS-PAGE gel (Biorad). Proteins were liquid-transferred (Biorad) to nitrocellulose membrane in transfer buffer (20% methanol, 25 mM Tris, 192 mM Glycine, 0.037% SDS) during 90 min at 100V.
# [8] = tested on: ICN1-binding sites of Notch-target genes; assay: Chromatin immunoprecipitation (ChIP) in SupT1 cells; format: cell-based, human
# Protocol: For ChIP experiments, 6×10^7 cells were cross-linked for 10 min with 1% formaldehyde (sigma) at room temperature. The cross-linking reaction was stopped by adding glycine to a final concentration of 0.125 M for 10 min at room temperature. Cells were washed twice with cold PBS and incubated on ice for 7 min in 2 mL of buffer containing 15 mM Tris-HCl (pH 7.4), 0.3 M sucrose (sigma), 60 mM KCl, 15 mM NaCl, 5 mM MgCl2, 0.1 mM EGTA and 0.1% NP-40. Each cell suspension was then layered over 8 mL sucrose cushion (15 mM Tris-HCl, 1.2 M sucrose, 60 mM KCl, 15 mM NaCl, 5 mM MgCl2 and 0.1 mM EGTA) and centrifuged at 10.000 g for 20 min at 4° C. Nuclear pellet was lysed with 1 mL lysis buffer (50 mM Tris-HCl pH 8, 10 mM EDTA, 1% SDS) complemented with Protease Inhibitor Cocktail (Roche). Chromatin was sonicated to generate DNA-fragments of approximately 300 to 500 bp in an ultra sonicator water bath (Bioruptor, Diagenode) using ten cycles of 30 s/on and 30 s/off. After centrifugation at 13.000 g for 20 min, an aliquot of sonicated DNA was reverse-crosslinked by addition of 250 mM NaCl and incubation at 65° C. for 6 h. DNA was extracted by phenol-chloroform, quantified using nanodrop and run on a 1% agarose gel to confirm DNA fragment size. The antibodies were pre-bound to Invitogen Dynal magnetic beads (Protein A or G beads) in PBS containing BSA (5 mg/mL) and chromatin was pre-cleared with beads for 4 h at 4° C. Immunoprecipitation was performed using 20 μg of chromatin and 2-3 μg of antibody coupled to 15 μL of beads in ChIP buffer (20 mM Tri-HCl pH 8, 150 mM NaCl, 2 mM EDTA, and 1% Triton X-100) complemented with Protease Inhibitor Cocktail. After overnight incubation at 4° C., beads were washed 4 times with wash buffer 1 (20 mM Tri-HCl pH 8, 150 mM NaCl, 2 mM EDTA, 1% Triton X-100 and 0.1% SDS) and 4 times with wash buffer 2 (20 mM Tri-HCl pH 8, 500 mM NaCl, 2 mM EDTA, 1% Triton X-100 and 0.1% SDS) using the DynaMag-2 magnet (Invitogen). Elution of immunoprecipitated DNA was performed in buffer containing 1% SDS and 100 mM NaHCO3. Crosslinking was reversed by incubation at 65° C. and proteins were degraded by addition of proteinase K (Sigma). Eluted DNA and 10% of input DNA were purified using phenol-chloroform extraction followed by isopropanol precipitation or using QIAquick PCR purification (Qiagen), according to the manufacturer instructions. Resultant DNA was dissolved in 60 μL of water containing 10 mM Tris-HCl pH 8. […] PCR measurements were performed in duplicate.
# SupT1 xenograft tumor = assay: Subcutaneous xenograft tumor model; format: in vivo; details: SupT1 cells expressing shRNA, SCID mice
# Protocol: Female SCID mice (C.B.-17/IcrHan™Hsd-Prkdcscid) were obtained from Harlan Laboratories (Gannat, France). Animals were maintained in specific pathogen-free animal housing at the Center for Exploration and Experimental Functional Research (CERFE, Evry, France) animal facility. […] 72 hours post-infection, cells were selected with 2 μg/mL puromycin for 72 hours. At this point, the cells were maintained in fresh media for 2 days prior to injection into animals. Prior injection, cells were washed and resuspended in DMEM: 50% Matrigel (BD Pharmingen). 5×10^6 cells […] were injected to each mouse by subcutaneous route in the right flank (n=5 per group). Tumor volume was evaluated by measuring tumor diameters, with a calliper, three times a week during the follow-up period (23 days). The formula TV (mm^3)=[length (mm)×width (mm)2]/2 was used, where the length and the width are the longest and the shortest diameters of the tumor, respectively.
# T-ALL cell lines = assay: Flow-cytometric cell cycle analysis of T-ALL cell lines; format: cell-based, human; details: shRNA knockdown
# Protocol: (§1) The following antibodies were used for flow cytometry: CD127-PE clone R34.34 and the IgG1-PE (from Beckman Coulter). Flow cytometry was performed on a BD FACSCalibur or MACSQUANT cytometer (Miltenyi). For cell proliferation assays, cells were plated at 2×10^5/mL in triplicate. Proliferation of shRNA-transduced T-ALL cells was followed by cell counting using the MACSQUANT cytometer (gated on live cells). Flow-cytometric cell cycle analysis was performed by staining DNA content of T-ALL cell lines using DAPI. SupT1 cells were also analyzed with EdU-DAPI staining to precisely define the percentage of cells at the G0/G1 phase. […] Cells were washed with PBS and fixed with PBS-4% PFA for 10 minutes at room temperature. After permeabilization, EdU incorporation was detected following the manufacturer's instructions (Click-iT, invitrogen) and total DNA content was measured using DAPI.
# [9] = tested on: SupT1, HPB-ALL, TALL1 and DND41; assay: Cell count proliferation assay of T-ALL cell lines; format: cell-based, human; details: shRNA knockdown
# Protocol: as §1
compound,measurement,setting,value
NC1CC1c1cc(F)cc(F)c1OCc1ccccc1 (stereo not shown) [S2101],effect on monoamine oxidases,monoamine oxidases,much weaker effect
same,Notch-induced HES1 activation,[1],reduced HES1 activation
same,expression of Notch-responsive genes,[2],depression of Notch-responsive genes
same,expression of the control S14 gene,[2],not affected
same,"HES1, HEY1 and DTX1 expression",[3],increased
same,Notch-target genes expression on LSD1 inhibitor treatment,[4],dose-dependent repression
"N[C@@H]1C[C@H]1c1ccccc1 (racemic) [TCP, tranylcypromine]",Notch-induced HES1 activation,[1],reduced HES1 activation
same,ICN1-induced activation of the Notch-responsive reporter (p6XCBS-luc),[5],impaired
same,"HES1, HEY1 and DTX1 expression",[3],increased
C[C@H](NC(=O)Cc1cc(F)cc(F)c1)C(=O)N[C@H]1N=C(c2ccccc2)c2ccccc2N(C)C1=O [GSI],RNAPII recruitment to Notch-target genes,[6],impaired
same,"MAML1 association with CSL, LSD1, PB1 and BRG1","[7]; SupT1, GSI 500 nM, 8 hours",severely altered
same,binding of PHF8 and AF4p12 to MAML1,"[7]; SupT1, GSI 500 nM, 8 hours",only marginally reduced
same,LSD1 binding to endogenous MAML1 and ICN1,[7]; SupT1 cells treated with DMSO or GSI,strongly reduced
same,H3K27me2 mark at IL7R and DTX1 loci,[8]; SupT1,increase
same,CSL and LSD1 binding,"[8]; SupT1, ICN1-binding sites",did not significantly affect
same,ICN1 and MAML1 on chromatin,"[8]; SupT1, ICN1-binding sites",released
same,"recruitment of PBAF, PHF8 and AF4p12","[8]; SupT1, ICN1-binding sites",reduced
"PHF8 shRNA: shRNA targeting PHF8, SEQ ID NO: 1; pSUPER retroviral vector (GCTTCATGATCGAGTGTGACA)",tumor establishment,SupT1 xenograft tumor,did not establish tumors
same,cell-cycle progression in MOLT4 and H9,T-ALL cell lines; Notch-independent T-ALL cell lines,did not significantly affect
same,cell cycle in NOTCH1-dependent T-ALL cells,T-ALL cell lines,G0/G1 cell-cycle arrest
same,Notch-mediated expression of c-MYC,[4]; shRNA knockdown,suppressed
same,proliferation,[9],marked reduction
